Measurements reported in patent US8754067B2, “22-haloacetoxy-homopregnacalciferol analogs and their uses” (Wisconsin Alumni Research Foundation, priority 2010, dated 2014).

What was measured:
[1] = biological target: T1, full-length recombinant rat vitamin D receptor (Rattus norvegicus, UniProt P13053); test: Vitamin D receptor binding, competition with [3H]-1,25(OH)2D3; conditions: FIG. 1
T1 construct: Full-length recombinant rat receptor was expressed in E. coli; histidine tag (C); made in house; host or cells: E. coli BL21 (DE3) Codon Plus RIL
T1 sequence (P13053 1-423): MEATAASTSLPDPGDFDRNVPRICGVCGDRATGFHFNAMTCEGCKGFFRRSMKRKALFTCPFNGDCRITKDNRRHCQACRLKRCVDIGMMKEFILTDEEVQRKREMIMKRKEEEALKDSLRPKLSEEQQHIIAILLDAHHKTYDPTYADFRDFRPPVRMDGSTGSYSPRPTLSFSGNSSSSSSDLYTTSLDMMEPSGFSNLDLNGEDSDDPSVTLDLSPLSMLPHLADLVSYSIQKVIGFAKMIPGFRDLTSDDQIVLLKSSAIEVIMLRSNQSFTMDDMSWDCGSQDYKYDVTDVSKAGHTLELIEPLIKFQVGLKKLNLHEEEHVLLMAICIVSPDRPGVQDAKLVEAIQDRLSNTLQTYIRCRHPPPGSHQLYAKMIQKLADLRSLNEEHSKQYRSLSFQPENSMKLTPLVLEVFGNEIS
Procedure: Full-length recombinant rat receptor was expressed in E. coli BL21 (DE3) Codon Plus RIL cells and purified to homogeneity using two different column chromatography systems. The first system was a nickel affinity resin that utilizes the C-terminal histidine tag on this protein. The protein that was eluted from this resin was further purified using ion exchange chromatography (S-Sepharose Fast Flow). Aliquots of the purified protein were quick frozen in liquid nitrogen and stored at −80° C. until use. For use in binding assays, the protein was diluted in TEDK50 (50 mM Tris, 1.5 mM EDTA, pH7.4, 5 mM DTT, 150 mM KCl) with 0.1% Chaps detergent. The receptor protein and ligand concentration was optimized such that no more than 20% of the added radiolabeled ligand was bound to the receptor.
Radiolabeled and unlabeled ligands were added to 100 mcl of the diluted protein at a final ethanol concentration of ≦10%, mixed and incubated overnight on ice to reach binding equilibrium. The following day, 100 mcl of hydroxylapatite slurry (50%) was added to each tube and mixed at 10-minute intervals for 30 minutes. […] After the final wash, the pellets were transferred to scintillation vials containing 4 ml of Biosafe II scintillation cocktail, mixed and placed in a scintillation counter. Total binding was determined from the tubes containing only radiolabeled ligand.

HL-60 leukemia cells [2] = test: HL-60 differentiation (nitro blue tetrazolium reduction); type: cell-based, human; conditions: FIG. 2
Procedure: The study drugs were dissolved in ethanol and the concentrations determined using UV spectrophotometry. Serial dilutions were prepared so that a range of drug concentrations could be tested without changing the final concentration of ethanol (≦0.2%) present in the cell cultures.
Human promyelocytic leukemia (HL60) cells were grown in RPMI-1640 medium containing 10% fetal bovine serum. The cells were incubated at 37° C. in the presence of 5% CO2.
HL60 cells were plated at 1.2×10^5 cells/ml. Eighteen hours after plating, cells in duplicate were treated with drug. Four days later, the cells were harvested and a nitro blue tetrazolium reduction assay was performed (Collins et al., 1979; J. Exp. Med. 149:969-974). The percentage of differentiated cells was determined by counting a total of 200 cells and recording the number that contained intracellular black-blue formazan deposits. Verification of differentiation to monocytic cells was determined by measuring phagocytic activity (data not shown).

[3] = test system: 24-hydroxylase (24 Ohase) gene promoter in ROS 17/2.8 (bone) cells; test: In vitro transcription assay (luciferase reporter); type: cell-based; conditions: ROS 17/2.8 cells, 16 hours after dosing; FIG. 3; read-out: EC50, transcriptional activity in bone cells
Procedure: Transcription activity was measured in ROS 17/2.8 (bone) cells that were stably transfected with a 24-hydroxylase (24 Ohase) gene promoter upstream of a luciferase reporter gene (Arbour et al., 1998). Cells were given a range of doses. Sixteen hours after dosing the cells were harvested and luciferase activities were measured using a luminometer. RLU=relative luciferase units.

[4] = test system: bone calcium mobilization; test: Bone calcium mobilization (serum calcium) in vitamin D-deficient rats; type: in vivo, rat; conditions: vitamin D-deficient rats on 0.02% Ca diet, FIG. 7
Procedure: (§1) Male, weanling Sprague-Dawley rats were placed on Diet 11 (Suda et al, J. Nutr. 100:1049, 1970) (0.47% Ca)+AEK oil for one week followed by Diet 11 (0.02% Ca)+AEK oil for 3 weeks. The rats were then switched to the same diet containing 0.47% Ca for one week followed by two weeks on the same diet containing 0.02% Ca. Dose administration began during the last week on 0.02% calcium diet. Four consecutive intraperitoneal (ip) doses were given approximately 24 hours apart. Twenty-four hours after the last dose, blood was collected from the severed neck and the concentration of serum calcium determined by atomic absorption spectrometry as a measure of bone calcium mobilization. The first 10 cm of the intestine was also collected for intestinal calcium transport analysis using the everted gut sac method.

[5] = test system: intestinal calcium transport; test: Intestinal calcium transport (everted gut sac) in vitamin D-deficient rats; type: in vivo, rat; conditions: 4 consecutive ip doses, FIG. 8
Procedure: as §1

[6] = Body weight of dosed animals; type: in vivo, rat; conditions: various doses, throughout the test period; FIG. 9
Procedure: as §1

HL-60 leukemia cells [7] = test: Cell viability, HL-60 leukemia cells; type: cell-based, human; conditions: four days growth, methylene blue; FIG. 4A/4B
Procedure: (§2) Various cell lines were plated, administered a range of drug concentrations one time, allowed to grow for four days and then the number of cells present counted and expressed as a percentage of those present in the vehicle control plates. […] The number of live cells was expressed as a percentage of the total present. Each assay was done in duplicate.

[8] = test system: H-82 lung carcinoma cells; test: Cell viability, H-82 lung carcinoma cells; type: cell-based; conditions: four days growth, methylene blue; FIG. 5A/5B
Procedure: as §2

DU-145 prostate cells = test: Cell viability, DU-145 prostate cells; type: cell-based; conditions: four days growth, methylene blue; FIG. 6A/6B
Procedure: as §2

SMILES | Ki ([1]; full-length recombinant rat VDR) | times less active than 1α,25-dihydroxyvitamin D3 in VDR binding ([1]; relative to natural hormone) | HL-60 cell differentiation activity (HL-60 leukemia cells [2]) | EC50 [3] | bone calcium mobilization (serum calcium) ([4]; 105,300 pmol/day ip for 4 consecutive days) | intestinal calcium transport activity ([5]; 35,100 pmol/rat) | change in body weight [6] | cell viability of HL-60 leukemia cells (HL-60 leukemia cells [7]) | cell viability of H-82 lung carcinoma cells [8] | cell viability of DU-145 prostate cells (DU-145 prostate cells) | EC50 (HL-60 leukemia cells [2]; four days after treatment, read-out: EC50, HL-60 cell differentiation) | bone calcium mobilization (serum calcium) ([4]; 780 pmol, 4 consecutive ip doses) | intestinal calcium transport activity ([5]; 780 pmol)
C=C1CC[C@H](O)C/C1=C/C=C1\CCC[C@]2(C)[C@@H]([C@H](C)COC(=O)CBr)CC[C@@H]12 [AB-47, 22-bromoacetoxy-homopregnacalciferol] | 3 nM | 100 times | does not promote HL60 differentiation | > 1000 nM | little or no mobilization of bone calcium | little to no activity | substantially maintain their body weight | kills HL-60 leukemia cells | kills H-82 lung carcinoma cells | neither AB-47 nor 1,25(OH)2D3 have any significant effect | – | – | –
C=C1/C(=C\C=C2/CCC[C@]3(C)[C@@H]([C@H](C)CCCC(C)(C)O)CC[C@@H]23)C[C@@H](O)C[C@@H]1O [1,25(OH)2D3, 1α,25-dihydroxyvitamin D3, reference compound] | – | – | – | – | – | – | – | does not have any significant effect | does not have any significant effect | neither AB-47 nor 1,25(OH)2D3 have any significant effect | 2 nM | significant increases in serum calcium | significant increase in activity
